Patent publication US6492365B1, “Microsomal triglyceride transfer protein” (Bristol-Myers Squibb Company, priority 1992, dated 2002)
Where a name gives a salt, the structure may show the parent alone.

Tested on: apoAI secretion from HepG2 cells
Test: ApoAI secretion from HepG2 cells (ELISA of culture media)
Assay type: cell-based, human
Settings: 16-hour incubation, up to the maximum dose of 20 μM
Experimental: HepG2 cells were treated with compound A at the indicated doses for 16 hours. The concentration in the cell culture media of apoB, apoAI and HSA after the incubation period was measured with the appropriate ELISA assay and normalized to total cell protein. The data shown are expressed as a percentage of the control (DMSO only).
The human hepatoblastoma cell line, HepG2, was obtained from the American Type Culture Collection (Rockville, Md.; ATCC accession no. 8065). Cultures were maintained at 37° C. in a 5% carbon dioxide atmosphere in T-75 culture flasks with 12 mL of RPMI 1640 medium containing 10% fetal bovine serum (all cell culture media and buffers were obtained from GIBCO Life Technologies, Gaithersburg, Md.). Cells were subcultured 1:4 once a week and fed fresh medium 3 times a week.
Experiments to measure the effects of compounds A and B on protein secretion were carried out in 48-well plates. HepG2 cells were subcultured 1:2 and allowed to come to confluency at least 24 hours before drug treatment. Before commencement of drug treatment, culture medium was removed, the cells washed once with PBS and 1 mL of fresh medium was added quantitatively. […] The cells were homogenized by trituration with a 1 mL micropipettor, and protein was measured using the Coomassie reagent (Pierce Chemical Co, Rockford, Ill.) as described by the manufacturer. […]

`O=C1c2ccccc2CN1C1CCN(CCC(c2ccccc2)c2ccccc2)CC1` [compound A, 2-[1-(3,3-diphenylpropyl)-4-piperdinyl]-2,3-dihydro-3-oxo-1H-isoindole hydrochloride] was tested, and the “secretion of apoAI” value was “unaffected”.
